Data as given in patent US11814392B2, “Chromenopyridine-based compounds and methods of making and use thereof” (Rosalind Franklin University of Medicine and Science, priority 2020, dated 2023).

Experiments:
HL-60 (TB) = assay: NCI 60 five-dose screening, HL-60 (TB); type: cell-based, human; details: HL-60 (TB) (Leukemia), 48 h
OVCAR-3 = assay: NCI 60 five-dose screening, OVCAR-3; type: cell-based, human
NCI/ADR-RES = assay: NCI 60 five-dose screening, NCI/ADR-RES; type: cell-based, human; details: NCI/ADR-RES (Ovarian Cancer), 48 h
HS578T = assay: NCI 60 five-dose screening, HS578T; type: cell-based, human; details: HS578T (Breast Cancer), 48 h
[1] = system: 60 human cancer cell lines; assay: NCI 60 cell line assay, panel summary; type: cell-based; details: for GI50: Homo sapiens, 60 cell
[2] = system: 60 human cancer cell lines; assay: NCI 60 One-Dose Screen; type: cell-based
Text: The one-dose assay reported the growth relative to the no-drug control, and relative to the time zero number of cells. This allowed for the detection of both growth inhibition (values between 0 and 100) and lethality (values less than 0). For example, a value of 100 means no growth inhibition. A value of 40 would mean 60% growth inhibition. A value of 0 means no net growth over the course of the experiment. A value of −40 would mean 40% lethality. A value of −100 means all cells are dead.

EKVX = assay: NCI 60 five-dose screening, EKVX; details: 48 h
Description: (§1) The National Cancer Institute's Developmental Therapeutic preclinical 60 human cancer cell lines were used for an in vitro screen. […] The one-dose and five-dose experiments were conducted according to standard NCI protocols.
(§2) The human tumor cell lines of the cancer screening panel are grown in RPMI 1640 medium containing 5% fetal bovine serum and 2 mM L-glutamine. For a typical screening experiment, cells are inoculated into 96 well microtiter plates in 100 μL at plating densities ranging from 5,000 to 40,000 cells/well depending on the doubling time of individual cell lines. After cell inoculation, the microtiter plates are incubated at 37° C., 5% CO2, 95% air and 100% relative humidity for 24 h prior to addition of experimental drugs.
(§3) After 24 h, two plates of each cell line are fixed in situ with TCA, to represent a measurement of the cell population for each cell line at the time of drug addition (Tz). […]
(§4) Following drug addition, the plates are incubated for an additional 48 h at 37° C., 5% CO2, 95% air, and 100% relative humidity. […] Bound stain is subsequently solubilized with 10 mM trizma base, and the absorbance is read on an automated plate reader at a wavelength of 515 nm. […] Using the seven absorbance measurements [time zero, (Tz), control growth, (C), and test growth in the presence of drug at the five concentration levels (Ti)], the percentage growth is calculated at each of the drug concentrations levels. Percentage growth inhibition is calculated as: [(Ti−Tz)/(C−Tz)]×100 for concentrations for which Ti>/=Tz [(Ti−Tz)/Tz]×100 for concentrations for which Ti<Tz.
(§5) Three dose response parameters are calculated for each experimental agent. […] The drug concentration resulting in total growth inhibition (TGI) is calculated from Ti=Tz. […] Values are calculated for each of these three parameters if the level of activity is reached; however, if the effect is not reached or is exceeded, the value for that parameter is expressed as greater or less than the maximum or minimum concentration tested.

HT29 = assay: NCI 60 five-dose screening, HT29
Description: as §1, §2, §3, §4, §5

U251 = assay: NCI 60 five-dose screening, U251
Description: as §1, §2, §3, §4, §5

A498 = assay: NCI 60 five-dose screening, A498
Description: (§6) The one-dose and five-dose experiments were conducted according to standard NCI protocols.
as §2
(§7) After 24 h, two plates of each cell line are fixed in situ with TCA, to represent a measurement of the cell population for each cell line at the time of drug addition (Tz). Experimental drugs are solubilized in dimethyl sulfoxide at 400-fold the desired final maximum test concentration and stored frozen prior to use. […]
as §4, §5

MCF7 = assay: NCI 60 five-dose screening, MCF7
Description: as §1, §2, §3, §4, §5

786.0 = assay: NCI 60 five-dose screening, 786.0
Description: as §6, §2, §7, §4, §5

HOP-92 = assay: NCI 60 five-dose screening, HOP-92
Description: as §6, §2, §7, §4, §5

SF-295 = assay: NCI 60 five-dose screening, SF-295
Description: as §1, §2, §3, §4, §5

SNB-19 = assay: NCI 60 five-dose screening, SNB-19
Description: as §1, §2, §3, §4, §5

HCT-116 = assay: NCI 60 five-dose screening, HCT-116
Description: as §1, §2, §3, §4, §5

OVCAR-5 = assay: NCI 60 five-dose screening, OVCAR-5
Description: as §1, §2, §3, §4, §5

SK-OV-3 = assay: NCI 60 five-dose screening, SK-OV-3
Description: as §6, §2, §7, §4, §5

RXF 393 = assay: NCI 60 five-dose screening, RXF 393
Description: as §6, §2
After 24 h, two plates of each cell line are fixed in situ with TCA, to represent a measurement of the cell population for each cell line at the time of drug addition (Tz). Experimental drugs are solubilized in dimethyl sulfoxide at 400-fold the desired final maximum test concentration and stored frozen prior to use. At the time of drug addition, an aliquot of frozen concentrate is thawed and diluted to twice the desired final maximum test concentration with complete medium containing 50 μg/ml gentamicin. Additional four, 10-fold or ½ log serial dilutions are made to provide a total of five drug concentrations plus control. Aliquots of 100 μl of these different drug dilutions are added to the appropriate microtiter wells already containing 100 μl of medium, resulting in the required final drug concentrations.
Following drug addition, the plates are incubated for an additional 48 h at 37° C., 5% CO2, 95% air, and 100% relative humidity. For adherent cells, the assay is terminated by the addition of cold TCA. Cells are fixed in situ by the gentle addition of 50 μl of cold 50% (w/v) TCA (final concentration, 10% TCA) and incubated for 60 minutes at 4° C. […] Bound stain is subsequently solubilized with 10 mM trizma base, and the absorbance is read on an automated plate reader at a wavelength of 515 nm. […] Using the seven absorbance measurements [time zero, (Tz), control growth, (C), and test growth in the presence of drug at the five concentration levels (Ti)], the percentage growth is calculated at each of the drug concentrations levels. Percentage growth inhibition is calculated as: [(Ti−Tz)/(C−Tz)]×100 for concentrations for which Ti>/=Tz [(Ti−Tz)/Tz]×100 for concentrations for which Ti<Tz.
as §5

NCI-H226 = assay: NCI 60 five-dose screening, NCI-H226
Description: as §6, §2, §7, §4, §5

NCI-H460 = assay: NCI 60 five-dose screening, NCI-H460
Description: as §1, §2, §3, §4, §5

NCI-H522 = assay: NCI 60 five-dose screening, NCI-H522
Description: as §1, §2, §3, §4, §5

LOX IMVI = assay: NCI 60 five-dose screening, LOX IMVI; details: 48 h
Description: as §1, §2, §3, §4, §5

SK-MEL-5 = assay: NCI 60 five-dose screening, SK-MEL-5
Description: as §1, §2, §3, §4, §5

[3] = RXF 393 (Renal Cancer), five-dose, 48 h

COc1ccc(SC2c3cc(OC)c(OC)cc3Oc3nc(N)c(C#N)c(N)c32)cc1 (centres unmarked) [Compound 1, 2,4-diamino-7,8-dimethoxy-5-((4-methoxyphenyl)thio)-5H-chromeno[2,3-b]pyridine-3-carbonitrile]
TGI (HL-60 (TB)): 1.27 µM
GI50 (HL-60 (TB); Homo sapiens): 0.34 µM
CC50 (OVCAR-3; Homo sapiens, OVCAR-3, 48 h, read-out: LC50): 5.03 µM
GI50 (OVCAR-3; Homo sapiens, OVCAR-3 (Ovarian Cancer), five-dose, 48 h): 1.06 µM
TGI (OVCAR-3; OVCAR-3 (Ovarian Cancer), five-dose, 48 h): 2.31 µM
GI50 (NCI/ADR-RES; Homo sapiens): 1.79 µM
TGI (NCI/ADR-RES): 3.69 µM
TGI (HS578T): 4.16 µM
GI50 (HS578T; Homo sapiens, Hs-578T): 1.8 µM
GI50 ([1]; at least one studied cell line of each of leukemia, colon cancer, CNS cancer, melanoma, ovarian cancer, renal cancer, and breast cancer): < 1 µM
GI50 ([1]; every leukemia cell line studied): < 0.5 µM
anti-proliferative activity ([1]; nine major cancer cell lines, initial single dose and five dose screening (FIG. 2, FIG. 3)): anti-proliferative activity
growth inhibition in the One-Dose Screen [2]: significant growth inhibition
TGI (EKVX; EKVX (Non-small cell Lung), five-dose): 3.34 µM
GI50 (EKVX; Homo sapiens, EKVX): 1.74 µM
CC50 (EKVX; Homo sapiens, EKVX, read-out: LC50): 6.42 µM
TGI (HT29; HT29 (Colon Cancer), five-dose, 48 h): 5.04 µM
GI50 (HT29; Homo sapiens, HT-29, 48 h): 2.16 µM
CC50 (HT29; Homo sapiens, HT-29, 48 h, read-out: LC50): > 100 µM
GI50 (U251; Homo sapiens, U-251, 48 h): 0.95 µM
CC50 (U251; Homo sapiens, U-251, 48 h, read-out: LC50): 4.83 µM
TGI (U251; U251 (CNS Cancer), five-dose, 48 h): 2.18 µM
TGI (A498; A498 (Renal Cancer), five-dose, 48 h): 2.85 µM
GI50 (A498; Homo sapiens, A498, 48 h): 1.42 µM
CC50 (A498; Homo sapiens, A498, 48 h, read-out: LC50): 5.73 µM
GI50 (MCF7; Homo sapiens, MCF7, 48 h): 0.45 µM
CC50 (MCF7; Homo sapiens, MCF7, 48 h, read-out: LC50): 8.47 µM
TGI (MCF7; MCF7 (Breast Cancer), five-dose, 48 h): 2.10 µM
TGI (786.0; 786.0 (Renal Cancer), five-dose, 48 h): 1.73 µM
GI50 (786.0; Homo sapiens, 786-0, 48 h): 0.49 µM
CC50 (786.0; Homo sapiens, 786-0, 48 h, read-out: LC50): 4.2 µM
TGI (HOP-92; HOP-92 (Non-small cell Lung), five-dose, 48 h): 2.72 µM
GI50 (HOP-92; Homo sapiens, HOP-92, 48 h): 1.24 µM
CC50 (HOP-92; Homo sapiens, HOP-92, 48 h, read-out: LC50): 5.99 µM
GI50 (SF-295; Homo sapiens, SF-295, 48 h): 1.6 µM
CC50 (SF-295; Homo sapiens, SF-295, 48 h, read-out: LC50): 5.48 µM
TGI (SF-295; SF-295 (CNS Cancer), five-dose, 48 h): 2.96 µM
GI50 (SNB-19; Homo sapiens, SNB-19, 48 h): 1.32 µM
CC50 (SNB-19; Homo sapiens, SNB-19, 48 h, read-out: LC50): 5.3 µM
TGI (SNB-19; SNB-19 (CNS Cancer), five-dose, 48 h): 2.64 µM
TGI (HCT-116; HCT-116 (Colon Cancer), five-dose, 48 h): 2.16 µM
GI50 (HCT-116; Homo sapiens, HCT-116, 48 h): 0.68 µM
CC50 (HCT-116; Homo sapiens, HCT-116, 48 h, read-out: LC50): 5.34 µM
GI50 (OVCAR-5; Homo sapiens, OVCAR-5, 48 h): 1.75 µM
CC50 (OVCAR-5; Homo sapiens, OVCAR-5, 48 h, read-out: LC50): 6.66 µM
TGI (OVCAR-5; OVCAR-5 (Ovarian Cancer), five-dose, 48 h): 3.39 µM
GI50 (SK-OV-3; Homo sapiens, SK-OV-3, 48 h): 1.81 µM
CC50 (SK-OV-3; Homo sapiens, SK-OV-3, 48 h, read-out: LC50): 5.66 µM
TGI (SK-OV-3; SK-OV-3 (Ovarian Cancer), five-dose, 48 h): 3.20 µM
GI50 (RXF 393; Homo sapiens, RXF 393, 48 h, RXF 393 (Renal Cancer), five-dose, 48 h): 0.45 µM
CC50 (RXF 393; Homo sapiens, RXF 393, 48 h, read-out: LC50): 4.52 µM
GI50 (RXF 393; [3]): 0.74 µM
TGI (RXF 393; [3]): 2.01 µM
GI50 (NCI-H226; Homo sapiens, NCI-H226, 48 h): 1.37 µM
CC50 (NCI-H226; Homo sapiens, NCI-H226, 48 h, read-out: LC50): 5.23 µM
TGI (NCI-H226; NCI-H226 (Non-small cell Lung), five-dose, 48 h): 2.68 µM
GI50 (NCI-H460; Homo sapiens, NCI-H460, 48 h): 1.66 µM
CC50 (NCI-H460; Homo sapiens, NCI-H460, 48 h, read-out: LC50): > 100 µM
TGI (NCI-H460; NCI-H460 (Non-small cell Lung), five-dose, 48 h): 4.38 µM
GI50 (NCI-H522; Homo sapiens, NCI-H522, 48 h): 1.37 µM
CC50 (NCI-H522; Homo sapiens, NCI-H522, 48 h, read-out: LC50): 5.6 µM
TGI (NCI-H522; NCI-H522 (Non-small cell Lung), five-dose, 48 h): 2.77 µM
GI50 (LOX IMVI; Homo sapiens, LOX IMVI): 0.58 µM
CC50 (LOX IMVI; Homo sapiens, LOX IMVI, read-out: LC50): 4.37 µM
TGI (LOX IMVI; LOX IMVI (Melanoma), five-dose): 1.86 µM
GI50 (SK-MEL-5; Homo sapiens, SK-MEL-5, 48 h): 1.5 µM
CC50 (SK-MEL-5; Homo sapiens, SK-MEL-5, 48 h, read-out: LC50): 5.33 µM
TGI (SK-MEL-5; SK-MEL-5 (Melanoma), five-dose, 48 h): 2.82 µM
